Data: patent US20250262226A1, “COMBINATIONS OF VITAMIN D3, NIACINAMIDE AND LIPOIC ACID FOR USE IN THE MAINTENANCE OF HEALTHY BLOOD GLUCOSE LEVELS” (priority 2022, published 2025)

Test system: L6 muscle cells
Assay: Insulin-stimulated glucose uptake (2-NBDG) in L6 muscle cells
Assay type: cell-based
Conditions: for glucose uptake relative to control cells: insulin stimulated, FIG. 5, V 500 IU, N 15 mg/ml, LA 0.5 mM; for increase in glucose uptake after insulin pulse over control cells: 100 nM insulin, FIG. 4
Experimental: The effect of each of vitamin D3, niacinamide and lipoic acid separately, and the fixed dose combination of vitamin D3, niacinamide and lipoic acid composition provided herein, were evaluated for the ability of each to have an effect on glucose uptake in an in vitro model. A goal was to improve insulin's ability to increase the uptake of glucose by L6 muscle cells.
Vitamin D3 was utilized to increase GLUT4 levels since this vitamin has been shown before to increase GLUT4 levels in muscle, and niacinamide was used to increase cellular NAD levels (El-Fakhri et al., Horm Res Paediact 81:363-378 (2014); Manna et al., J Biol Chem 287 (50): 42324-42332 (2012); Garten, Endocrinologist, Issue 135 (2020); and Fan et al., J Diabetes Investig. 11 (6): 1403-1419 (2020)). Glucose uptake studies using L6 cells were performed. L6 cells (ATCC CLR-1458; Rockville, MD) were maintained in Dulbecco's modified Eagle's medium (DMEM) supplemented with 10% Fetal Bovine Serum (FBS) and 100 μg/mL penicillin and streptomycin, at 37° C. in an atmosphere of 5% CO2. 2-(N-[7-nitrobenz-2-oxa-1, 3-diazol-4-yl]amino)-2-deoxyglucose (2-NBDG) (Molecular Probes-Invitrogen, CA, USA) was used to assess glucose uptake in the L6 cells. The cells were kept in glucose free medium for half an hour before insulin stimulation. The cells were then stimulated with 100 nM insulin for 10 and 20 min and incubated with 10 μM of 2-NBDG for 15 min. The reaction was stopped by washing with cold PBS three times and the cells were lysed using 0.1% Triton X. The lysate was then used to read florescence at […]. The data is reported in FIG. 4 as percent of control cells (no treatment, incubation with media).
Experiment conducted n=5. Student's t-tests were performed to compare between the present glucose uptake shown by control, vitamin D, niacinamide, and their combination at different time points.
Because the TCA cycle and glucose metabolism in the mitochondria generate oxidative stress, lipoic acid, an antioxidant (Golbidi et al., Front Pharmacol, Vol. 2, Article 69 (2011), 15 pages) which is known to enter the mitochondria, was tested to determine if it could further enhance glucose uptake. The following combinations were tested for improvements in muscle cell glucose uptake stimulated by insulin: Vitamin D3 plus Niacinamide plus or minus Lipoic acid alone.

Compound	glucose uptake relative to control cells	increase in glucose uptake after insulin pulse over control cells (10 minutes)	increase in glucose uptake after insulin pulse over control cells (20 minutes)
O=C(O)CCCCC1CCSS1 (racemic) [Lipoic acid, DL-alpha-lipoic acid]	did not increase glucose uptake		
NC(=O)c1cccnc1 [niacinamide]		about 3 fold	only little
C=C1CC[C@H](O)C/C1=C/C=C1\CCC[C@]2(C)[C@@H]([C@H](C)CCCC(C)C)CC[C@@H]12 [vitamin D3, cholecalciferol]		about 6 fold	less so
Vitamin E	had no effect		
